Results taken from patent publication US20210261538A1, “PROTEIN ARGININE METHYLTRANSFERASE 5 (PRMT5) DEGRADATION / DISRUPTION COMPOUNDS AND METHODS OF USE” (ICAHN SCHOOL OF MEDICINE AT MOUNT SINAI, priority 2018, published 2021).
“Also recorded” adds a separate entry of the source.

Assays:
[1] = target: T1, PRMT5 (Homo sapiens, UniProt O14744); test: Western blot of PRMT5 protein levels in HCT116 cells; type: cell-based; design: endogenous in cells; settings: 5 μM, 6 days
Protocol: (§1) MCF-7 cells, HEK293T cells and HeLa cells were cultured in Dulbecco's Modified Eagle Medium (DMEM) supplemented with 10% fetal bovine serum (FBS) in 5% CO2 at 37° C. Jurkat cells were cultured in RPMI 1640 medium supplemented with 10% FBS in 5% CO2 at 37° C. H2171 cells were cultured in HITES medium supplemented with 10% FBS in 5% CO2 at 37° C. HCT116 were cultured in McCoy's 5A medium supplemented with 10% fetal bovine serum (FBS) in 5% CO2 at 37° C. All the cells lines were treated with 5 μM (or indicated concentration) of PRMT5 inhibitor (EPZ015666) or degraders, or equivalent volume of DMSO for 6 days (or indicated time points). Fresh compounds were constituted in medium and used for every 2 days. The antibodies used in this study are: PRMT5 antibody (Active Motif), (3-actin antibody (Sigma), SDMA antibody (collaboration with Cell Signaling Technologies). Cell cultures were harvested at the end of compound treatments and applied subjected to western blotting assay. Briefly, cells were washed with PBS and lysed with RIPA lysis buffer for 20 minutes on ice. Then lysates were centrifuged and the clear supernatant were collected. SDS loading buffer was added to the lysates and then the mixture was boiled at 100° C. for 5 minutes. Samples were loaded to 10% or 12% SDS-PAGE gel and ran at 120V for 1.5 hours. […]

[2] = Standard PK study in mice; type: in vivo, male Swiss Albino mice; settings: single 150 mg/kg IP injection
Protocol: Standard PK studies were conducted using male Swiss Albino mice. A single 150 mg/kg intraperitoneal (IP) injection of YS43-22 was evaluated. Plasma concentrations of YS43-22 reported at each of the six time points (15 min, 30 min, 1 h, 2 h, 6 h, and 12 h post dosing) are the average values from 3 test animals.

[3] = target: T1, PRMT5; test: Western blot of PRMT5 protein levels in 293T cells; type: cell-based; design: endogenous in cells; host or cells: 293T (HEK293T); settings: 5 μM, 6 days
Protocol: as §1

[4] = target: T1, PRMT5; test: Western blot of PRMT5 protein levels in MCF-7 cells; type: cell-based; design: endogenous in cells; host or cells: MCF-7
Protocol: MCF-7 cells, HEK293T cells and HeLa cells were cultured in Dulbecco's Modified Eagle Medium (DMEM) supplemented with 10% fetal bovine serum (FBS) in 5% CO2 at 37° C. Jurkat cells were cultured in RPMI 1640 medium supplemented with 10% FBS in 5% CO2 at 37° C. H2171 cells were cultured in HITES medium supplemented with 10% FBS in 5% CO2 at 37° C. HCT116 were cultured in McCoy's 5A medium supplemented with 10% fetal bovine serum (FBS) in 5% CO2 at 37° C. All the cells lines were treated with 5 μM (or indicated concentration) of PRMT5 inhibitor (EPZ015666) or degraders, or equivalent volume of DMSO for 6 days (or indicated time points). Fresh compounds were constituted in medium and used for every 2 days. The antibodies used in this study are: PRMT5 antibody (Active Motif), (3-actin antibody (Sigma), SDMA antibody (collaboration with Cell Signaling Technologies). Cell cultures were harvested at the end of compound treatments and applied subjected to western blotting assay. Briefly, cells were washed with PBS and lysed with RIPA lysis buffer for 20 minutes on ice. Then lysates were centrifuged and the clear supernatant were collected. SDS loading buffer was added to the lysates and then the mixture was boiled at 100° C. for 5 minutes. Samples were loaded to 10% or 12% SDS-PAGE gel and ran at 120V for 1.5 hours. Then the proteins were transferred to PVDF membrane and blocked in 5% milk fat at room temperature for 1 hour. Then the membranes were incubated with indicated antibodies at 4° C. overnight. Membranes were washed with PBST buffer three times for 10 minutes each time and incubated with HRP-conjugated (horse radish peroxidase) secondary antibodies at room temperature for 1 hour. Again the membranes were washed with PBST buffer three times for 10 minutes each time. Finally, the indicated proteins on the membranes were visualized with ECL (enhanced chemiluminescence) reagents. MCF-7 cells were treated with DMSO or indicated compounds at 5 μM for 6 days. […] MCF-7 cells were treated with DMSO or indicated serial dilutions of compounds for 6 days. The PRMT5 protein levels were determined by Western blot.

[5] = target: T1, PRMT5; test: Western blot of PRMT5 protein levels in Jurkat cells; type: cell-based; design: endogenous in cells; settings: 5 μM, 6 days
Protocol: as §1

[6] = target: T1, PRMT5; test: Western blot of PRMT5 protein levels in HeLa cells; type: cell-based; design: endogenous in cells; settings: 5 μM, 6 days
Protocol: as §1

T1 sequence (O14744 whole entry): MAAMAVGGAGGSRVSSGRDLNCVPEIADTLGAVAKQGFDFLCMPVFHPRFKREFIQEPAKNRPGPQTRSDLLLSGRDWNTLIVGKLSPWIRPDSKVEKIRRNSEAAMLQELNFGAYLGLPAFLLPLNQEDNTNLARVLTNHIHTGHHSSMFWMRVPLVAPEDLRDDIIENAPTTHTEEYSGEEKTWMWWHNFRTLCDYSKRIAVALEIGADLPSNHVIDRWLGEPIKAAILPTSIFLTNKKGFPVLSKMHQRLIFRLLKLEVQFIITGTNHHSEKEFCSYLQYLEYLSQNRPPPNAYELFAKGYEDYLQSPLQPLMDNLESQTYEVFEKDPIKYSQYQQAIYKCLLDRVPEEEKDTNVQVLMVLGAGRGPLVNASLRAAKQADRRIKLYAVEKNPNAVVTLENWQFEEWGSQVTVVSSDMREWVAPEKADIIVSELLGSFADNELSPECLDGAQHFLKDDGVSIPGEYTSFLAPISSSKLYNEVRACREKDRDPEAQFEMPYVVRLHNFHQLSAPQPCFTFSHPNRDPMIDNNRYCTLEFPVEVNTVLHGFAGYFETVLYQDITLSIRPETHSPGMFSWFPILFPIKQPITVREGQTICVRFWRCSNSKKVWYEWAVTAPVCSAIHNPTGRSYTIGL
T1 sequence (Q9BQA1 whole entry partner): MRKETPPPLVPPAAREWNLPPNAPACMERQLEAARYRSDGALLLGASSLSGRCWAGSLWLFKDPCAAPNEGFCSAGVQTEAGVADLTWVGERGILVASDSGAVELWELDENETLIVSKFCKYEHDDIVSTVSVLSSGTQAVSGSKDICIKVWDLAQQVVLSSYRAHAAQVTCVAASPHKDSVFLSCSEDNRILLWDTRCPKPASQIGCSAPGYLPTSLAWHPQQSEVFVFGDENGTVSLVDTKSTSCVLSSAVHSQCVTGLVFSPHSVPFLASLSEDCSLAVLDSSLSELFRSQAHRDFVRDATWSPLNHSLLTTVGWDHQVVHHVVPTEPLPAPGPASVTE

- PRMT5 protein levels [1]: slightly
- clinical observations [2]: no abnormal clinical observations
- bioavailability (plasma concentrations) ([2]; 15 min to 12 h post dosing, 150 mg/kg): Bioavailable
- PRMT5 protein levels [3]: slightly
- suppressing PRMT5 expression ([4]; MCF-7 cells (Examples 90-92)): especially effective
- PRMT5 protein levels ([4]; MCF-7 cells, 5 μM, 6 days, Western blot): very well
- PRMT5 protein levels [5]: very well
- PRMT5 protein levels [6]: moderately
Compound: Cc1ncsc1-c1ccc([C@H](C)NC(=O)[C@@H]2C[C@@H](O)CN2C(=O)[C@@H](NC(=O)COCCOCCOCCOCCOCC(=O)N2CC(Nc3cc(C(=O)NC[C@H](O)CN4CCc5ccccc5C4)ncn3)C2)C(C)(C)C)cc1 [YS43-22, N-((S)-3-(3,4-dihydroisoquinolin-2(1H)-yl)-2-hydroxypropyl)-6-((1-((S)-19-((2S,4R)-4-hydroxy-2-(((S)-1-(4-(4-methylthiazol-5-yl)phenyl)ethyl)carbamoyl)pyrrolidine-1-carbonyl)-20,20-dimethyl-17-oxo-3,6,9,12,15-pentaoxa-18-azahenicosanoyl)azetidin-3-yl)amino)pyrimidine-4-carboxamide]
- PRMT5 protein levels, concentration and time dependence ([4]; MCF-7 cells, serial dilutions of compounds, 6 days, Western blot): concentration- and time-dependent; also recorded: significantly reduced
